# Experimental data as given in ChEMBL document CHEMBL5143691, “Lead optimization of pyrido[2,3-d][1]benzazepin-6-one derivatives leading to the discovery of a potent, selective, and orally available human parathyroid hormone receptor 1 (hPTHR1) antagonist (DS69910557)” (Bioorg Med Chem, 2022).
# pIC50: −log10 of the molar value.
# Experiments:
# [1] = Metabolic stability in rat liver microsomes assessed as compound remaining at 1 uM incubated for 30 mins in presence of NADPH by LC-MS/MS analysis
# physchem [2] = settings: JP2 fluid, pH 6.8
# [3] = biological target: T1, Parathyroid hormone/parathyroid hormone-related peptide receptor (Homo sapiens, UniProt Q03431); experiment: Antagonist activity against human PTHR1 expressed in CHO-K1 cells assessed as reduction in PTH induced cAMP level incubated for 30 mins in presence of IBMX by cAMP assay
# T1 sequence (Q03431 whole entry): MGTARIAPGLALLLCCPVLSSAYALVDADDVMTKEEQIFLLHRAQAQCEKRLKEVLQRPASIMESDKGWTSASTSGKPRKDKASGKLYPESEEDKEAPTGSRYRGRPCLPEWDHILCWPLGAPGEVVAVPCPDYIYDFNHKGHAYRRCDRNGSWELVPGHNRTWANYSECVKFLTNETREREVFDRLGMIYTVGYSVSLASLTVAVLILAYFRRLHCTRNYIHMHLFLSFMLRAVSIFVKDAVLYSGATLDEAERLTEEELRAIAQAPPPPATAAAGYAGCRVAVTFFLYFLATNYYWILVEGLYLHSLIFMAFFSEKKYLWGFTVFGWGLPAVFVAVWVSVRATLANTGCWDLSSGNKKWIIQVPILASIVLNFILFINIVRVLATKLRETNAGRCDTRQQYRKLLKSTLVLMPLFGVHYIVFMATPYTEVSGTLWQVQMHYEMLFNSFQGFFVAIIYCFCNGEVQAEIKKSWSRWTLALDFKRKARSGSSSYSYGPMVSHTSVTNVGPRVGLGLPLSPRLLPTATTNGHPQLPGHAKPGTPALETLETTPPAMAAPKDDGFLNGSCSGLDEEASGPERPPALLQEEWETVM
# physchem [4] = settings: JP1 fluid, pH 1.2
# hERG (KCNH2) = hERG (KCNH2) (Homo sapiens, UniProt Q12809); experiment: Inhibition of human ERG potassium channel expressed in CHO-K1 cells at 3 uM incubated for 5 mins by patch clamp assay; assay type: toxicity, cell-based; settings: CHO-K1 cells expressing human ERG potassium channel
# Sequence of hERG (KCNH2) (Q12809 whole entry): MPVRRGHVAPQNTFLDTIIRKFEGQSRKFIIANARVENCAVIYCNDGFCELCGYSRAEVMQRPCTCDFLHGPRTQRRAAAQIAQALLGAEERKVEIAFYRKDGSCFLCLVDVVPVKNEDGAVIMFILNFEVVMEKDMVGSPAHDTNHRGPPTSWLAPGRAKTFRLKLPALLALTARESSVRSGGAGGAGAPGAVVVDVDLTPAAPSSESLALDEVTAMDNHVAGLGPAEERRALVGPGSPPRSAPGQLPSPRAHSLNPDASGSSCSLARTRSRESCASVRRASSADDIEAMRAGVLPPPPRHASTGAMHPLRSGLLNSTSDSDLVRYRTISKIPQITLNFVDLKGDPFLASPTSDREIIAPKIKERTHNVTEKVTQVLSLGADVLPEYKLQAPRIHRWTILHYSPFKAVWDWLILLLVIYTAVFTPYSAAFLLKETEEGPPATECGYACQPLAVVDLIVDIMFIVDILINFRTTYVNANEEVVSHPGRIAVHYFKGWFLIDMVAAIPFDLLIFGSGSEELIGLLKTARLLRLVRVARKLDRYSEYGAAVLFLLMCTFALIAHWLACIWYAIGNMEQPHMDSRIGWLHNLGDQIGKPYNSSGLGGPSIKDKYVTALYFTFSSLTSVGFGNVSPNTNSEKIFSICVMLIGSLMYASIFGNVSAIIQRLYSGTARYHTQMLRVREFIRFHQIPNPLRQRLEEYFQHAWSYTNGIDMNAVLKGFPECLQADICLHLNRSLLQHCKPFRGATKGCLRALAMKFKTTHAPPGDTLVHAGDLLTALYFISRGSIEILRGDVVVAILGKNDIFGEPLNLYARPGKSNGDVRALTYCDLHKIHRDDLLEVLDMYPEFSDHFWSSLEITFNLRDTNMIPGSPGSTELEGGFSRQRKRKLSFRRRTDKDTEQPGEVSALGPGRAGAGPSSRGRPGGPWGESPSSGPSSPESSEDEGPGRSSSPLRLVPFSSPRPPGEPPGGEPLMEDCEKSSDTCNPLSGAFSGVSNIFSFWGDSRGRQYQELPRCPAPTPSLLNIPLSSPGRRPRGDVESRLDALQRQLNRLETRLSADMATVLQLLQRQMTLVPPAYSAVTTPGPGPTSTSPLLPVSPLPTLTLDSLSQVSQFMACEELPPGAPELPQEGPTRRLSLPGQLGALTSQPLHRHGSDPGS
# CYP2D6 = CYP2D6 (Homo sapiens, UniProt P10635); experiment: Inhibition of CYP2D6 (unknown origin) at 10 uM relative to control; assay type: ADME
# Sequence of CYP2D6 (P10635 whole entry): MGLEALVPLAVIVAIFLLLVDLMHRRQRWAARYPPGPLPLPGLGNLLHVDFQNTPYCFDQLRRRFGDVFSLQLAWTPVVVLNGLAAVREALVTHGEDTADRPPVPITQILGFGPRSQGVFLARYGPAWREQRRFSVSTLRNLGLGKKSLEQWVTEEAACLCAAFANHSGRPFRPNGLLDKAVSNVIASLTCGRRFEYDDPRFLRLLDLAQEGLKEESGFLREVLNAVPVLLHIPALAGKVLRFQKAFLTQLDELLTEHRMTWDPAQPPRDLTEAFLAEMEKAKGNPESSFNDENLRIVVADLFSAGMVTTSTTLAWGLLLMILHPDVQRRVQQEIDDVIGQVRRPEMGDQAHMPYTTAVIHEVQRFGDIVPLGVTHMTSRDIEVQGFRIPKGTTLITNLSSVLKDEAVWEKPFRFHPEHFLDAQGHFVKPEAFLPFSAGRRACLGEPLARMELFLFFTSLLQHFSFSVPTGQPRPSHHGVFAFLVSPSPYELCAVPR
# CYP2C8 = biological target: T2, CYP2C8 (Homo sapiens, UniProt P10632); experiment: Inhibition of CYP2C8 (unknown origin) at 10 uM relative to control; assay type: ADME
# T2 sequence (P10632 whole entry): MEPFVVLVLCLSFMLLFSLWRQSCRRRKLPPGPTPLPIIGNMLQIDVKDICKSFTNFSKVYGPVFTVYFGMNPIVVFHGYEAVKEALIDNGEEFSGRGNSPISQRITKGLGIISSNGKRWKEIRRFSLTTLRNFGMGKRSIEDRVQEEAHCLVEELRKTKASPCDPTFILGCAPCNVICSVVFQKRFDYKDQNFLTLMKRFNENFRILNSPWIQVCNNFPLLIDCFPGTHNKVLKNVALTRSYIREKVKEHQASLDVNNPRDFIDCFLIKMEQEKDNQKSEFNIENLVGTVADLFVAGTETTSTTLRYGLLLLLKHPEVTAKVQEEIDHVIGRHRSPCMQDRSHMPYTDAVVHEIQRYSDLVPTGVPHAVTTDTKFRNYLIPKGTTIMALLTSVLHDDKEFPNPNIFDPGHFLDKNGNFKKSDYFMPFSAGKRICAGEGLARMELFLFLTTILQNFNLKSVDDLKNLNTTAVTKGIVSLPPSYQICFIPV
# CYP1A2 = biological target: T3, CYP1A2 (Homo sapiens, UniProt P05177); experiment: Inhibition of CYP1A2 (unknown origin) at 10 uM relative to control; assay type: ADME
# T3 sequence (P05177 whole entry): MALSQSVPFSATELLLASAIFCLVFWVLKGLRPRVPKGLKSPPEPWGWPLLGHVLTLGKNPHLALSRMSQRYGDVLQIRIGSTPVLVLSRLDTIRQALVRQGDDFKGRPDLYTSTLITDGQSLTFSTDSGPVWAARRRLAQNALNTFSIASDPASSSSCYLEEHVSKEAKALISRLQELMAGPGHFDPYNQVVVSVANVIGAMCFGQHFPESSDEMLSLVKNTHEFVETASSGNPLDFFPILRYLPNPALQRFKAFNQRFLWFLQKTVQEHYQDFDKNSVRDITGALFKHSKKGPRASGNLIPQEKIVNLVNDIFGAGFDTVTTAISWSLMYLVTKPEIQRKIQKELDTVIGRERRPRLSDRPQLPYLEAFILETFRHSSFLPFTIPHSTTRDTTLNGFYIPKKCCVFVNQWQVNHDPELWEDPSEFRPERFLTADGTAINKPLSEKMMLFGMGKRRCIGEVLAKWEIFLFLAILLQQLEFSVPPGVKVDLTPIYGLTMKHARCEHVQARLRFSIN
# CYP2C19 = CYP2C19 (Homo sapiens, UniProt P33261); experiment: Inhibition of CYP2C19 (unknown origin) at 10 uM relative to control; assay type: ADME
# Sequence of CYP2C19 (P33261 whole entry): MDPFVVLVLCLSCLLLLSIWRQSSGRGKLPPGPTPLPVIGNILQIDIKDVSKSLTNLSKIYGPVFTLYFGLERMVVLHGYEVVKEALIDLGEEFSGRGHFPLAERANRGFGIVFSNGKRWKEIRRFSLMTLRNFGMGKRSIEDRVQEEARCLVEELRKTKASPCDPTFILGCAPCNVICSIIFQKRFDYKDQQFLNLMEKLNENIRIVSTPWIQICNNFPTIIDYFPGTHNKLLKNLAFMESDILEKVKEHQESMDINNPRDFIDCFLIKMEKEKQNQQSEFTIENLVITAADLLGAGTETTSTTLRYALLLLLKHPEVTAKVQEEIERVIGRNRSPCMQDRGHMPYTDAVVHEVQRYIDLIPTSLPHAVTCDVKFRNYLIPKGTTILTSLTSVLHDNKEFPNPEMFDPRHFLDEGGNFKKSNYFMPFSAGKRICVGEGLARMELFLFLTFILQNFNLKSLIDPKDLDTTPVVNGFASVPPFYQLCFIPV
# [5] = Distribution coefficient, log D of compound in 1-octanol and aqueous phosphate buffered saline at pH 7.4 incubated for 30 mins by HPLC-MS analysis; settings: 1-octanol/phosphate buffered saline
# in vivo = settings: Sprague-Dawley, rat, po, 5 mg/kg
# [6] = AUClast in Sprague-Dawley rat at 5 mg/kg, po by LC-MS/MS analysis; settings: in vivo
"remaining at 0.5 h, 1 µM [1] [%]",solubility at 4 h (physchem [2]) [µg/mL],pIC50 [3],solubility at 4 h (physchem [4]) [µg/mL],Compound,"inhibition at 5 min, 3 µM (hERG (KCNH2)) [%]",further results
82,88,6.08,940,CC1(C)C(=O)N(c2ccc(N3CC(O)(CNC4CCOCC4)C3)cc2)c2cc(Cl)ccc2-c2cc(Cl)cnc21,–,–
23,0.7,6.96,160,COC(=O)C1(CNC2CCOCC2)CN(c2ccc(N3C(=O)C(C)(C)c4ncc(Cl)cc4-c4ccc(Cl)cc43)cc2)C1,–,–
23,2.5,6.11,530,COC1(CN(C)C2CCOCC2)CN(c2ccc(N3C(=O)C(C)(C)c4ncc(Cl)cc4-c4ccc(Cl)cc43)cc2)C1,–,–
–,–,–,–,CC1(C)C(=O)N(c2ccc(N3CC(CN[C@H]4CC[C@H](C(=O)O)CC4)C3)cc2)c2cc(Cl)ccc2-c2cc(Cl)cnc21,0,–
93,97,4.64,100,CC1(C)C(=O)N(c2ccc(N3CC(CNC4CCOCC4)(C(=O)O)C3)cc2)c2cc(Cl)ccc2-c2cc(Cl)cnc21,–,–
–,–,–,–,COC1(CN[C@H]2CC[C@H](C(=O)O)CC2)CN(c2ccc(N3C(=O)C(C)(C)c4ncc(Cl)cc4-c4ccc(Cl)cc43)cc2)C1,0,–
–,–,–,–,CC1(C)C(=O)N(c2ccc(N3CC(F)(CN[C@H]4CC[C@H](C(=O)O)CC4)C3)cc2)c2cc(Cl)ccc2-c2cc(Cl)cnc21,2,inhibition at 10 µM (CYP2D6): < 50%; inhibition at 10 µM (CYP2C8): < 50%; inhibition at 10 µM (CYP1A2): < 50%; inhibition at 10 µM (CYP2C19): < 50%
97,–,7.05,–,CC1(C)C(=O)N(c2ccc(N3CC(F)(CNC45CCC(C(=O)O)(CC4)CC5)C3)cc2)c2cc(Cl)ccc2-c2cc(Cl)cnc21,–,logD at 0.5 h [5]: 2.8; Cmax (in vivo): 900 ng/mL; AUC(0-t) [6]: 11900 ng·h/mL
